Measured values: ChEMBL document CHEMBL3232991, “New polyfunctional imidazo[4,5-C]pyridine motifs: synthesis, crystal studies, docking studies and antimicrobial evaluation” (Eur J Med Chem, 2014)
Converted amounts (≈) assume the structure as drawn. The source made the active and inactive calls. The rule behind the calls is not given here.

Columns and labels:
Pseudomonas aeruginosa [1] = assay: Antibacterial activity against Pseudomonas aeruginosa MTCC 4727 assessed as diameter of growth inhibition zone at 1000 ug/ml after 20 hrs by agar disc diffusion method; type: functional; details: for zone of inhibition at 1000 µg/mL: MTCC 4727, 20 h, read-out: DIZ
Pseudomonas aeruginosa [2] = assay: Antibacterial activity against Pseudomonas aeruginosa MTCC 4727 assessed as diameter of growth inhibition zone at 500 ug/ml after 20 hrs by agar disc diffusion method; type: functional; details: for zone of inhibition at 500 µg/mL: MTCC 4727, 20 h, read-out: DIZ
Saccharomyces cerevisiae [3] = assay: Antifungal activity against Saccharomyces cerevisiae NCIM 3044 assessed as diameter of growth inhibition zone at 1000 ug/ml after 4 days by agar disc diffusion method; type: functional
Escherichia coli [4] = assay: Antibacterial activity against Escherichia coli NCIM 2931 assessed as diameter of growth inhibition zone at 1000 ug/ml after 20 hrs by agar disc diffusion method; type: functional; details: for zone of inhibition at 1000 µg/mL: NCIM 2931, 20 h, read-out: DIZ
Bacillus cereus [5] = assay: Antibacterial activity against Bacillus cereus NCIM 2155 assessed as diameter of growth inhibition zone at 500 ug/ml after 20 hrs by agar disc diffusion method; type: functional; details: for zone of inhibition at 500 µg/mL: NCIM 2155, 20 h, read-out: DIZ
Candida albicans [6] = assay: Antifungal activity against Candida albicans MTCC 183 assessed as diameter of growth inhibition zone at 500 ug/ml after 4 days by agar disc diffusion method; type: functional; details: for zone of inhibition at 500 µg/mL: MTCC 183, 96 h, read-out: DIZ
Staphylococcus aureus [7] = assay: Antibacterial activity against Staphylococcus aureus MTCC 4102 assessed as diameter of growth inhibition zone at 500 ug/ml after 20 hrs by agar disc diffusion method; type: functional
Candida albicans [8] = assay: Antifungal activity against Candida albicans MTCC 183 assessed as diameter of growth inhibition zone at 1000 ug/ml after 4 days by agar disc diffusion method; type: functional; details: for zone of inhibition at 1000 µg/mL: MTCC 183, 96 h, read-out: DIZ
Bacillus cereus [9] = assay: Antibacterial activity against Bacillus cereus NCIM 2155 assessed as diameter of growth inhibition zone at 1000 ug/ml after 20 hrs by agar disc diffusion method; type: functional; details: for zone of inhibition at 1000 µg/mL: NCIM 2155, 20 h, read-out: DIZ
Escherichia coli [10] = assay: Antibacterial activity against Escherichia coli NCIM 2931 assessed as diameter of growth inhibition zone at 500 ug/ml after 20 hrs by agar disc diffusion method; type: functional; details: for zone of inhibition at 500 µg/mL: NCIM 2931, 20 h, read-out: DIZ
Staphylococcus aureus [11] = assay: Antibacterial activity against Staphylococcus aureus MTCC 4102 assessed as diameter of growth inhibition zone at 1000 ug/ml after 20 hrs by agar disc diffusion method; type: functional
Saccharomyces cerevisiae [12] = assay: Antifungal activity against Saccharomyces cerevisiae NCIM 3044 assessed as diameter of growth inhibition zone at 500 ug/ml after 4 days by agar disc diffusion method; type: functional
Escherichia coli [13] = assay: Antibacterial activity against Escherichia coli NCIM 2931 assessed as diameter of growth inhibition zone at 10 ug/ml after 20 hrs by agar disc diffusion method; type: functional
Saccharomyces cerevisiae [14] = assay: Antifungal activity against Saccharomyces cerevisiae NCIM 3044 assessed as diameter of growth inhibition zone at 10 ug/ml after 4 days by agar disc diffusion method; type: functional
Staphylococcus aureus [15] = assay: Antibacterial activity against Staphylococcus aureus MTCC 4102 assessed as diameter of growth inhibition zone at 10 ug/ml after 20 hrs by agar disc diffusion method; type: functional
Pseudomonas aeruginosa [16] = assay: Antibacterial activity against Pseudomonas aeruginosa MTCC 4727 assessed as diameter of growth inhibition zone at 10 ug/ml after 20 hrs by agar disc diffusion method; type: functional
Candida albicans [17] = assay: Antifungal activity against Candida albicans MTCC 183 assessed as diameter of growth inhibition zone at 10 ug/ml after 4 days by agar disc diffusion method; type: functional
Bacillus cereus [18] = assay: Antibacterial activity against Bacillus cereus NCIM 2155 assessed as diameter of growth inhibition zone at 10 ug/ml after 20 hrs by agar disc diffusion method; type: functional
Candida albicans [19] = assay: Antifungal activity against Candida albicans MTCC 183 assessed as assessed as growth inhibition after 48 hrs by broth microdilution method; type: functional, organism-based; details: MTCC 183, 48 h
Saccharomyces cerevisiae [20] = assay: Antifungal activity against Saccharomyces cerevisiae NCIM 3044 assessed as growth inhibition after 48 hrs by broth microdilution method; type: functional, organism-based; details: NCIM 3044, 48 h

| Compound | diameter of the inhibition zone (DIZ) (Saccharomyces cerevisiae [3]) | diameter of the inhibition zone (DIZ) (Escherichia coli [4]) | diameter of the inhibition zone (DIZ) (Bacillus cereus [5]) | diameter of the inhibition zone (DIZ) (Candida albicans [6]) | diameter of the inhibition zone (DIZ) (Staphylococcus aureus [7]) | diameter of the inhibition zone (DIZ) (Candida albicans [8]) | diameter of the inhibition zone (DIZ) (Bacillus cereus [9]) | diameter of the inhibition zone (DIZ) (Escherichia coli [10]) | diameter of the inhibition zone (DIZ) (Staphylococcus aureus [11]) | diameter of the inhibition zone (DIZ) (Saccharomyces cerevisiae [12]) | diameter of the inhibition zone (DIZ) (Pseudomonas aeruginosa [1]) | diameter of the inhibition zone (DIZ) (Pseudomonas aeruginosa [2]) | also measured |
| --- | --- | --- | --- | --- | --- | --- | --- | --- | --- | --- | --- | --- | --- |
| N#CC1CCCN(c2ncc(-c3cccc(F)c3)c3[nH]c(CSc4ccccc4)nc23)C1 (stereo not drawn) | inactive | inactive | inactive | inactive | inactive | inactive | inactive | inactive | inactive | inactive | – | – | zone of inhibition at 1000 µg/mL (Pseudomonas aeruginosa [1]): 11 mm; zone of inhibition at 500 µg/mL (Pseudomonas aeruginosa [2]): 5.2 mm |
| CN[C@@H]1[C@H](O[C@H]2[C@H](O[C@H]3[C@H](O)[C@@H](O)[C@H](N=C(N)N)[C@@H](O)[C@@H]3N=C(N)N)O[C@@H](C)[C@]2(O)C=O)O[C@@H](CO)[C@H](O)[C@H]1O [STREPTOMYCIN] | – | – | – | – | – | – | – | – | – | – | – | – | zone of inhibition at 10 µg/mL (Escherichia coli [13]; NCIM 2931, 20 h, read-out: DIZ): 21.4 mm; diameter of the inhibition zone (DIZ) (Saccharomyces cerevisiae [14]): inactive; zone of inhibition at 10 µg/mL (Staphylococcus aureus [15]; MTCC 4102, 20 h, read-out: DIZ): 23.8 mm; zone of inhibition at 10 µg/mL (Pseudomonas aeruginosa [16]; MTCC 4727, 20 h, read-out: DIZ): 20.9 mm; diameter of the inhibition zone (DIZ) (Candida albicans [17]): inactive; zone of inhibition at 10 µg/mL (Bacillus cereus [18]; NCIM 2155, 20 h, read-out: DIZ): 20.2 mm |
| Cc1cccc(Cc2nc3c(N4CCCC(C#N)C4)ncc(-c4cccc(F)c4)c3[nH]2)c1 (stereo not drawn) | inactive | inactive | inactive | – | inactive | – | inactive | inactive | inactive | inactive | – | – | zone of inhibition at 1000 µg/mL (Pseudomonas aeruginosa [1]): 13 mm; IC50 (Candida albicans [19]): 206 µg/mL (≈ 485 µM); MIC (Candida albicans [19]): 404 µg/mL (≈ 950 µM); zone of inhibition at 500 µg/mL (Pseudomonas aeruginosa [2]): 6.2 mm; zone of inhibition at 500 µg/mL (Candida albicans [6]): 6.8 mm; zone of inhibition at 1000 µg/mL (Candida albicans [8]): 15 mm |
| N#CC1CCCN(c2ncc(-c3cccc(F)c3)c3[nH]c(C4CCCCC4)nc23)C1 (stereo not drawn) | inactive | – | inactive | inactive | inactive | inactive | inactive | – | inactive | inactive | inactive | inactive | zone of inhibition at 1000 µg/mL (Escherichia coli [4]): 12.5 mm; zone of inhibition at 500 µg/mL (Escherichia coli [10]): 6 mm |
| CC(C)(C)Cc1nc2c(N3CCCC(C#N)C3)ncc(-c3cccc(F)c3)c2[nH]1 (stereo not drawn) | inactive | inactive | inactive | inactive | inactive | inactive | inactive | inactive | inactive | inactive | inactive | inactive | – |
| OC(Cn1cncn1)(Cn1cncn1)c1ccc(F)cc1F [FLUCONAZOLE] | – | – | – | – | – | – | – | – | – | – | – | – | diameter of the inhibition zone (DIZ) (Escherichia coli [13]): inactive; zone of inhibition at 10 µg/mL (Saccharomyces cerevisiae [14]; NCIM 3044, 96 h, read-out: DIZ): 24 mm; diameter of the inhibition zone (DIZ) (Staphylococcus aureus [15]): inactive; diameter of the inhibition zone (DIZ) (Pseudomonas aeruginosa [16]): inactive; zone of inhibition at 10 µg/mL (Candida albicans [17]; MTCC 183, 96 h, read-out: DIZ): 25 mm; diameter of the inhibition zone (DIZ) (Bacillus cereus [18]): inactive |
| Cn1cc(-c2cnc(N3CCC(C#N)CC3)c3nc(Cc4ccc(Cl)cc4Cl)[nH]c23)cn1 | inactive | inactive | inactive | inactive | inactive | inactive | inactive | inactive | inactive | inactive | inactive | inactive | – |
| N#CC1CCCN(c2ncc(-c3cccc(F)c3)c3[nH]c(Cc4cc(F)ccc4F)nc23)C1 (stereo not drawn) | inactive | inactive | inactive | inactive | inactive | inactive | inactive | inactive | inactive | inactive | inactive | inactive | – |
| N#CC1CCCN(c2ncc(-c3cccc(F)c3)c3[nH]c(CCc4ccccc4)nc23)C1 (stereo not drawn) | inactive | inactive | – | inactive | inactive | inactive | – | inactive | inactive | inactive | inactive | inactive | zone of inhibition at 500 µg/mL (Bacillus cereus [5]): 6.7 mm; zone of inhibition at 1000 µg/mL (Bacillus cereus [9]): 13 mm |
| N#CC1CCCN(c2ncc(-c3cccc(F)c3)c3[nH]c(COc4ccccc4)nc23)C1 (stereo not drawn) | – | inactive | – | inactive | inactive | inactive | – | inactive | inactive | – | inactive | inactive | zone of inhibition at 1000 µg/mL (Saccharomyces cerevisiae [3]; NCIM 3044, 96 h, read-out: DIZ): 19 mm; zone of inhibition at 500 µg/mL (Bacillus cereus [5]): 2.8 mm; zone of inhibition at 1000 µg/mL (Bacillus cereus [9]): 6 mm; zone of inhibition at 500 µg/mL (Saccharomyces cerevisiae [12]; NCIM 3044, 96 h, read-out: DIZ): 8.7 mm; IC50 (Saccharomyces cerevisiae [20]): 192 µg/mL (≈ 449 µM); MIC (Saccharomyces cerevisiae [20]): 384 µg/mL (≈ 898 µM) |
| CCC(CC)c1nc2c(N3CCCC(C#N)C3)ncc(-c3cccc(F)c3)c2[nH]1 (stereo not drawn) | inactive | inactive | inactive | inactive | inactive | inactive | inactive | inactive | inactive | inactive | inactive | inactive | – |
| Cn1cc(-c2cnc(N3CCC(C#N)CC3)c3nc(CCc4ccccc4)[nH]c23)cn1 | inactive | – | inactive | – | – | – | inactive | – | – | inactive | inactive | inactive | IC50 (Candida albicans [19]): 73.7 µg/mL (≈ 179 µM); MIC (Candida albicans [19]): 195 µg/mL (≈ 475 µM); zone of inhibition at 1000 µg/mL (Escherichia coli [4]): 12 mm; zone of inhibition at 500 µg/mL (Candida albicans [6]): 12.3 mm; zone of inhibition at 500 µg/mL (Staphylococcus aureus [7]; MTCC 4102, 20 h, read-out: DIZ): 4.2 mm; zone of inhibition at 1000 µg/mL (Candida albicans [8]): 22 mm; zone of inhibition at 500 µg/mL (Escherichia coli [10]): 5.4 mm; zone of inhibition at 1000 µg/mL (Staphylococcus aureus [11]; MTCC 4102, 20 h, read-out: DIZ): 10 mm |
